Assays:
plasma cholesterol = assay: In vivo inhibition of increases in plasma cholesterol concentrations in rats fed a cholesterol-supplemented diet; parameters: species or system rat; details: diet supplemented with cholesterol/cholic acid and 0.03% w/w test compound, after 3 days, relative to control animals fed cholesterol diet without drug
[1] = tested on: acyl coenzyme-A:cholesterol-O-acyl transferase (ACAT;EC 2.3.1.26); assay: In vitro inhibition of ACAT in liver microsomes from cholesterol-fed rats, incubated with radiolabelled oleoyl-CoA; format: biochemical; details: 1 μg/ml, rat liver microsomes

In-vitro % Inhibition (degree of ACAT inhibition) [1] | Structure (SMILES) | In-vivo % Inhibition (of increases in plasma cholesterol concentrations) (plasma cholesterol)
82% | CCCCCCCCCCOc1ccc(C(=O)Nc2cc(C(=O)NCCOC)ccc2SC)cc1 [Compound A, N-[2-methylthio-5-(2-methoxyethylaminocarbonyl)]phenyl-4-decyloxybenzamide] | 100%
98% | CCCCCCCCCCOc1ccc(C(=O)Nc2cc(C(=O)NCCSC)ccc2SC)cc1 [C, N-[2-methylthio-5-(2-methylthioethylaminocarbonyl)]phenyl-4-decyloxybenzamide] | 91%
– | CCCCCCCCCCOc1ccc(C(=O)Nc2cc(C(=O)NCCCC)ccc2SC)cc1 [B, N-(2-methylthio-5-butylaminocarbonyl)phenyl-4-decyloxybenzamide] | 92%
83% | CCCCCCCCCCOc1ccc(C(=O)Nc2cc(C(=O)NCCSC)ccc2OC)cc1 [E, N-[2-methoxy-5-(2-methylthioethylaminocarbonyl)]phenyl-4-decyloxybenzamide] | –
91% | CCCCCCCCCCSc1ccc(C(=O)Nc2cc(C(=O)NCCCC)ccc2OC)cc1 [G, N-(2-methoxy-5-butylaminocarbonyl)phenyl-4-(decylthio)benzamide] | –
87% | CCCCCCCCCOc1ccc(C(=O)Nc2cc(C(=O)NCCSC)ccc2OC)cc1 [F, N-[2-methoxy-5-(2-methylthioethylaminocarbonyl)]phenyl-4-nonyloxybenzamide] | –
94% | CCCCCCCCCCSc1ccc(C(=O)Nc2cc(C(=O)NCCSC)ccc2SC)cc1 [D, N-[2-methylthio-5-(2-methylthioethylaminocarbonyl)]phenyl-4-(decylthio)benzamide] | 100%

From patent publication US5159114A, “ACAT inhibitory benzanilides” (Rhone-Poulenc Sante, priority 1989, dated 1992)
